Measurements as given in ChEMBL document CHEMBL5143678, “Identification of Antithrombotic Natural Products Targeting the Major Substrate Binding Pocket of Protein Disulfide Isomerase” (J Nat Prod, 2022).
Active and inactive are the calls of the source. The rule behind the calls is not given here.

How the values were obtained:
[1] = biological target: T1, Protein disulfide-isomerase (Homo sapiens, UniProt P07237); experiment: Binding affinity to recombinant His-tagged full length human PDI-b' x domain substrate binding pocket expressed in Escherichia coli BL21 (DE3) cells assessed as decrease in fluorescence intensity at 100 uM incubated for 10 mins by tryptophan fluorescence based assay
Target sequence in this assay (P07237 18-508 limits assumed): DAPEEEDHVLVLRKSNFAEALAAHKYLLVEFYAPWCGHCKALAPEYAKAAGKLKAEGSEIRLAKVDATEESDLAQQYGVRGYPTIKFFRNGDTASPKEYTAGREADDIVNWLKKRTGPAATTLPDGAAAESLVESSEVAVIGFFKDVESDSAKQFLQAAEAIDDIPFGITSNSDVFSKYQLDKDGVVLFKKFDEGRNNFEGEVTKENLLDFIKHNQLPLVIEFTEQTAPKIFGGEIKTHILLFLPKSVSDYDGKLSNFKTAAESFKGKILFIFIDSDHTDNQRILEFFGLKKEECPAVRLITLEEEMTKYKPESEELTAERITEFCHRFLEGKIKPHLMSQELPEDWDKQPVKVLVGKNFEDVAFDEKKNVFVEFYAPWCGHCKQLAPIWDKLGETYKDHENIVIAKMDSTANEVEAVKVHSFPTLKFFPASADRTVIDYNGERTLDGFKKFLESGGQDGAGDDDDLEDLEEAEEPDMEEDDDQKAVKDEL

[2] = biological target: T1, Protein disulfide-isomerase; experiment: Binding affinity to recombinant His-tagged full length human PDI-b' x domain substrate binding pocket expressed in Escherichia coli BL21 (DE3) cells assessed as inhibition constant at 100 uM incubated for 10 mins by tryptophan fluorescence based assay
Target sequence in this assay (P07237 whole entry): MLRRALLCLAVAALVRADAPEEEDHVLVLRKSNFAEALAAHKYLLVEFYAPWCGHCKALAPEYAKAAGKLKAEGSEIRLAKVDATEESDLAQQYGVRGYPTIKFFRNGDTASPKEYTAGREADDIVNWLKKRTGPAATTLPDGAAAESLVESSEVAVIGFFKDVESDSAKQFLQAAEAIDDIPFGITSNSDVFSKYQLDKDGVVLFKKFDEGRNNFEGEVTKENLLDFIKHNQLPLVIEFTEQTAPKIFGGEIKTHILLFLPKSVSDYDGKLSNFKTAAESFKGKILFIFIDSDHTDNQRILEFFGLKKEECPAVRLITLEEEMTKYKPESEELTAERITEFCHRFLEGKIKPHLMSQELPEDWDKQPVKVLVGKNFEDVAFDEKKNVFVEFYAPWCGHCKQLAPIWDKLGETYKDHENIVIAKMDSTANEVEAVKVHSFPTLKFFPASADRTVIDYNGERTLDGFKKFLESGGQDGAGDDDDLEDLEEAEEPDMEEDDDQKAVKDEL

[3] = biological target: T1, Protein disulfide-isomerase; experiment: Inhibition of recombinant His-tagged full length human PDI reductase activity assessed as inhibition of PDI/DTT-mediated cleavage of disulfide bond in insulin at 100 uM incubated for 40 mins by spectrophotometric analysis
Target sequence in this assay (P07237 18-508 limits assumed): as the sequence (P07237 18-508 limits assumed) above

[4] = biological target: T1, Protein disulfide-isomerase; experiment: Inhibition of recombinant His-tagged full length human PDI reductase activity assessed as inhibition of PDI/DTT-mediated cleavage of disulfide bond in insulin in the presence of DTT incubated for 40 mins by spectrophotometric analysis; details: dose 100-200 µM, DDE = dose-dependent effect
Target sequence in this assay (P07237 18-508 limits assumed): as above

[5] = biological target: T2, Protein disulfide-isomerase A6 (Homo sapiens) (UniProt Q15084); experiment: Inhibition of ERp5 (unknown origin) reductase activity assessed as inhibition of PDI/DTT-mediated cleavage of disulfide bond in insulin in the presence of DTT incubated for 40 mins by spectrophotometric analysis; details: dose 100-200 µM, DDE = dose-dependent effect
T2 sequence (whole entry): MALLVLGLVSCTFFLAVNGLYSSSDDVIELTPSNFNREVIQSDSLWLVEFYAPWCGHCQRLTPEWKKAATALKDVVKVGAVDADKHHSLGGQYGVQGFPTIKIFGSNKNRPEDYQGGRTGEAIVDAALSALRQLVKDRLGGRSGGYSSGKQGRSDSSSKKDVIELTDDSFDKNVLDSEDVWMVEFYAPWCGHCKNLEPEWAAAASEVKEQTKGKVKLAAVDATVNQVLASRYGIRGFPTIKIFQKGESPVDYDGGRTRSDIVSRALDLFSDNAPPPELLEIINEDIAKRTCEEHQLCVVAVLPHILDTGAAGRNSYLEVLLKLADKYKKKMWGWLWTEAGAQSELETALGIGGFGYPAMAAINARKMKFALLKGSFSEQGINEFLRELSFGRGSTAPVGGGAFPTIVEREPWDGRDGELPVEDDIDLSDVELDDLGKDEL

[6] = biological target: T3, Protein disulfide-isomerase A3 (Homo sapiens) (UniProt P30101); experiment: Inhibition of ERp57 (unknown origin) reductase activity assessed as inhibition of PDI/DTT-mediated cleavage of disulfide bond in insulin in the presence of DTT incubated for 40 mins by spectrophotometric analysis; details: dose 100-200 µM, DDE = dose-dependent effect
T3 sequence (whole entry): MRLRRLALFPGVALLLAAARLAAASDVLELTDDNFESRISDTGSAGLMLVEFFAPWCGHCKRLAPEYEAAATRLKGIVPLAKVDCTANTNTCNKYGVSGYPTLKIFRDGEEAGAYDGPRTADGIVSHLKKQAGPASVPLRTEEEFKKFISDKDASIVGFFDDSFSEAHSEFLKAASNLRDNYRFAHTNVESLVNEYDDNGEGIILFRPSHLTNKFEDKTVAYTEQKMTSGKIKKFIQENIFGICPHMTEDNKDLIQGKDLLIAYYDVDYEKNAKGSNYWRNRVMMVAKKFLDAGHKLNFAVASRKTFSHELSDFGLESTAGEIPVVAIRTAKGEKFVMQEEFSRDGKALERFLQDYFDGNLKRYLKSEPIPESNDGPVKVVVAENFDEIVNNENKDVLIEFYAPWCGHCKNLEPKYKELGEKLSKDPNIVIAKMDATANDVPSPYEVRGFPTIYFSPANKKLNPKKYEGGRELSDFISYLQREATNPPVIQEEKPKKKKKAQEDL

[7] = biological target: T4, Protein disulfide-isomerase A4 (Homo sapiens) (UniProt P13667); experiment: Inhibition of ERp72 (unknown origin) reductase activity assessed as inhibition of PDI/DTT-mediated cleavage of disulfide bond in insulin in the presence of DTT incubated for 40 mins by spectrophotometric analysis; details: dose 100-200 µM, DDE = dose-dependent effect
T4 sequence (whole entry): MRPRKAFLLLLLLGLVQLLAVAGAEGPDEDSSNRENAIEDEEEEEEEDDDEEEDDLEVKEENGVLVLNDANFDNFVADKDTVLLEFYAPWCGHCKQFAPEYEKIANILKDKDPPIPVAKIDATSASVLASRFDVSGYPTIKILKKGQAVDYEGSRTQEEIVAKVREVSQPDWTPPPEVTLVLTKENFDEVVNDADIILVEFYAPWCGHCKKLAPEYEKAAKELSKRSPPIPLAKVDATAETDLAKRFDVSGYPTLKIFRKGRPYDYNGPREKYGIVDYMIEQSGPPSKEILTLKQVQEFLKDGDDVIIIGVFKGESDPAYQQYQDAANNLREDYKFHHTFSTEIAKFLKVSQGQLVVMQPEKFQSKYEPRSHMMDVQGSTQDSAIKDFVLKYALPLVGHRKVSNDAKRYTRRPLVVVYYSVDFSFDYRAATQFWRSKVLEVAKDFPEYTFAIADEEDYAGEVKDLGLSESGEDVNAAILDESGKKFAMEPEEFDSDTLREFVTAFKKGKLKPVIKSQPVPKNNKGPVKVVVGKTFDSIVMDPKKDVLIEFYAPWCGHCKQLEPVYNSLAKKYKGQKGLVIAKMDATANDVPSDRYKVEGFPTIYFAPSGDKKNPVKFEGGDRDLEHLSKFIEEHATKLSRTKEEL

Mus musculus [8] = experiment: Antithrombotic activity in anesthetized ICR mouse model of electrically-induced carotid artery thrombosis assessed as delay in occlusion time at 30 mg/kg, iv; assay type: functional, organism-based
Mus musculus [9] = experiment: Antithrombotic activity in anesthetized ICR mouse model of electrically-induced carotid artery thrombosis assessed as inhibition of thrombosis formation by measuring increase in bleeding time at 30 mg/kg, iv; assay type: functional, organism-based
[10] = Toxicity in anesthetized ICR mouse model of electrically-induced carotid artery thrombosis assessed as thrombus formation by measuring blood loss in tail at 30 mg/kg, iv; assay type: organism-based; details: in vivo

Compound	Activity [1]	Ki [2] [µM]	inhibition [3]	also measured
O=c1c(O)c(-c2ccccc2)oc2ccccc12	Active			
COc1cc(C=O)ccc1OC(C)=O	Active	309	Active	

Now from value to compound, other results behind:

Activity [1]	Ki [2] [µM]	inhibition [3]	Compound	also measured
Active			O=C(Nc1ccccc1)c1ccccc1O	
Active	5.9	Active	O=c1c(O)c(-c2ccccc2)oc2cc(O)cc(O)c12 [GALANGIN]	inhibition [4]: Dde; inhibition [5]: Dde; inhibition [6]: Dde; inhibition [7]: Dde; Activity (Mus musculus [8]): Active; Activity (Mus musculus [9]): Active; Activity [10]: Non-Toxic
Active			NC(CO)C(=O)NNCc1ccc(O)c(O)c1O (centres undefined)	
Active	36.1	Active	O=C(/C=C/c1ccc(O)cc1)c1ccc(O)cc1O [ISOLIQUIRITIGENIN]	
